Measured values as given in patent US8563472B2 (priority 2010, dated 2013).

Key:
Phytophthora infestans = type: in vivo; details: hydrazone 50 ppm with 50 μM CuCl2.2H2O, applied 24 h before inoculation, tomato plants, assessed 7 d after inoculation
[1] = system: Leptosphaeria nodorum (LEPTNO); test: In vitro fungitoxicity assay against Leptosphaeria nodorum in copper-minus / copper-plus liquid medium; type: cell-based; details: for inhibition of growth at 0.05 µg/mL: Parastagonospora nodorum, copper-minus medium, growth by light scattering, read-out: LEPTNO % Inhn. Minus Copper Observed; for inhibition of growth at 0.05 µg/mL / LEPTNO % Inhn. Plus Copper Observed: test compound 0.05 μg/mL, 25° C., 72 h; for LEPTNO % Inhn. Plus Copper Observed: copper-plus medium (CuCl2.2H2O)
Protocol: In vitro fungitoxicity assays against Leptosphaeria nodorum (LEPTNO) were conducted using the liquid growth medium described by Coursen and Sisler (American Journal of Botany 1960, 47, 541-549) except that copper micronutrient, normally included as CuSO4, was omitted. The medium, termed “copper-minus”, was prepared by dissolving 10 g glucose, 1.5 g K2HPO4, 2 g KH2PO4 and 1 g (NH4)2SO4 in 1 liter of deionized water and treating the solution with 0.5 g Chelex 100 resin (Bio-Rad Analytical grade, 50-100 mesh, sodium form, cat#142-2822) by stirring at room temperature for 1 h. MgSO4.7H2O (0.5 g) was added, and stirring was continued for a further hour. Trace elements (minus CuSO4), and vitamins described by Coursen and Sisler were added from concentrated stock solutions and the entire medium was sterilized by filtration. Medium containing copper was prepared by adding CuCl2.2H2O to the copper-minus medium at 20 μM. […] Copper-minus medium (100 μL) was added to one of the wells and copper-plus medium to the second well. Control wells, included for each medium, received 1 μL DMSO and 100 μL of medium.
LEPTNO was grown on potato dextrose agar in 9 cm diameter petri dishes for 7 days (d). Sterile deionized water (20 mL) was added to a culture plate and spores suspended by scraping the surface gently with a sterile plastic loop. The resulting suspension was filtered through a double layer of sterile cheesecloth. […] The spores were resuspended in copper-minus medium, and the suspension adjusted to 2×10^5 spores per mL. Microtiter plates were inoculated with 100 μL of this spore suspension and the plates incubated at 25° C. for 72 h before assessing fungal growth by measuring light scattering in a NepheloStar plate reader. Growth inhibition was determined by comparing growth in the presence of test compound with growth in control wells lacking test compound.

| SMILES | TLB % control (Phytophthora infestans) [%] | inhibition of growth at 0.05 µg/mL [1] [%] | LEPTNO % Inhn. Plus Copper Observed [1] [%] | melting point [°C] | LEPTNO % inhibition attributed to copper chloride alone ([1]; CuCl2 10 μM, no test compound, copper-plus vs copper-minus medium across experiments) [%] |
| --- | --- | --- | --- | --- | --- |
| Cc1cc(C(=O)N/N=C/c2cc(Cl)cc(Cl)c2O)c2cc(Br)ccc2n1 [Compound 1] | 7 | 2.5 | 73.8 | 265 to 267 |  |
| Cc1cc(C(=O)N/N=C/c2ccccc2O)cs1 [Compound 24] | 56 | 2.9 | 94.8 | 180 to 182 |  |
| O=C(N/N=C/c1cc(Cl)cc(Cl)c1O)c1ccc(Cl)s1 [Compound 26] | 92 | 2.7 | 97.5 | 248 to 250 |  |
| O=C(N/N=C/c1ccccc1O)c1cccs1 [Compound 7] | 38 | 0 | 87.3 |  |  |
| Cc1occc1C(=O)N/N=C/c1cc(Br)ccc1O [Compound 6] | 75 | 2.2 | 96.7 |  |  |
| C/C(=N\NC(=O)c1ccoc1C)c1ccccc1O [Compound 9] | 60 | 3.9 | 97 |  |  |
| C=CCc1cccc(/C=N/NC(=O)c2ccc(Br)o2)c1O [Compound 11] | 31 | 12.9 | 95.1 |  |  |
| Cc1c(C(=O)N/N=C/c2ccccc2O)[nH]c2c([N+](=O)[O-])cccc12 [Compound 4] | 4 | 11.3 | 91.4 | 296 to 299 |  |
| C/C(=N\NC(=O)c1ccsc1)c1ccccc1O [Compound 40] | 80 | 0 | 96.8 | 148 to 150 |  |
| O=C(N/N=C/c1cc(Cl)ccc1O)c1cccs1 [Compound 5] | 54 | 0 | 95.8 |  |  |
| CCn1nc(C)cc1C(=O)N/N=C/c1cc(Cl)cc(Cl)c1O [Compound 16] | 39 | 3.5 | 88 | 221 to 222 |  |
| C/C(=N\NC(=O)c1csc(C)c1)c1ccccc1O [Compound 39] | 66 | 0 | 97.3 | 158 to 160 |  |
| C/C(=N\NC(=O)c1ccsc1)c1cc(Br)cc(Br)c1O [Compound 53] | 73 | 7.6 | 97.6 | 251 to 253 |  |
| C/C(=N\NC(=O)c1ccc(Cl)s1)c1ccccc1O [Compound 38] | 56 | 0 | 98 | 204 to 205 |  |
| C/C(=N\NC(=O)c1ccoc1C)c1cc(Br)cc(Br)c1O [Compound 52] | 66 | 0 | 97.7 | 201 to 204 |  |
| Cc1cc(C(=O)N/N=C/c2cc(Br)cc(Br)c2O)cs1 [Compound 32] | 69 | 0 | 97.6 | 203 to 205 |  |
| Cc1nc(C)c(C(=O)N/N=C/c2cc(Br)cc(Br)c2O)s1 [Compound 30] | 49 | 1 | 71.2 | 225 to 226 |  |
| O=C(N/N=C/c1ccccc1O)c1snnc1-c1ccccc1 [Compound 22] | 56 | 9.6 | 77.9 | 191 to 192 |  |
| O=C(N/N=C/c1ccccc1O)c1sc2ccccc2c1Cl [Compound 19] | 44 | 0 | 92.1 |  |  |
| Cc1nn(-c2ccccc2)nc1C(=O)N/N=C/c1ccccc1O [Compound 21] | 16 | 0 | 93.9 | 231 to 233 |  |

| SMILES | TLB % control (Phytophthora infestans) [%] | inhibition of growth at 0.05 µg/mL [1] [%] | LEPTNO % Inhn. Plus Copper Observed [1] [%] | melting point [°C] | LEPTNO % inhibition attributed to copper chloride alone ([1]; CuCl2 10 μM, no test compound, copper-plus vs copper-minus medium across experiments) [%] |
| --- | --- | --- | --- | --- | --- |
| C/C(=N\NC(=O)c1csc(C)c1)c1cc(Cl)cc(Cl)c1O [Compound 45] | 83 | 3.7 | 98.3 | 218 to 220 |  |
| C/C(=N\NC(=O)c1cnn(-c2ccc(Cl)cc2)c1C(F)(F)F)c1cc(Cl)cc(Cl)c1O [Compound 41] | 36 | 0 | 71.3 | 209 to 211 |  |
| CN1CCCCC1C(=O)N/N=C/c1cc(Cl)cc(Cl)c1O (stereo not drawn) [Compound 54, 1-methyl-piperidine-2-carboxylic acid [1-(3,5-dichloro-2-hydroxy-phenyl)-methylidene]-hydrazide] | 22 | 0 | 91 | 107 to 110 |  |
| O=C(N/N=C/c1cc(Cl)cc(Cl)c1O)c1ccsc1 [Compound 28] | 80 | 4.4 | 97.6 | 315 to 318 |  |
| C/C(=N\NC(=O)c1cn(-c2ccccc2)nc1O)c1cc(Cl)cc(Cl)c1O [Compound 42] | 2 | 3.5 | 91.2 | 269 to 271 |  |
| O=C(N/N=C/c1ccccc1O)c1ccc(Cl)s1 [Compound 23] | 32 | 0 | 96.3 | 228 to 230 |  |
| C/C(=N\NC(=O)c1cnn(-c2ccc(Cl)cc2)c1C(F)(F)F)c1ccccc1O [Compound 35] | 59 | 4.3 | 94.8 | 201 to 202 |  |
| O=C(N/N=C/c1cc(Cl)cc(Cl)c1O)c1cnn(-c2ccc(Cl)cc2)c1C(F)(F)F [Compound 17] | 69 | 15.8 | 92.6 | 216 to 217 |  |
| O=C(N/N=C/c1ccccc1)c1cnn(-c2ccc(Cl)cc2)c1C(F)(F)F [Compound 18] | 7 | 0 | 92.5 | 205 to 207 |  |
| Cc1cc(C(=O)N/N=C/c2cc(Cl)cc(Cl)c2O)cs1 [Compound 27] | 78 | 5.4 | 97.3 | 189 to 191 |  |
| Cc1occc1C(=O)N/N=C/c1cc(Br)cc(Br)c1O [Compound 33] | 66 | 9.1 | 97.8 | 270 to 272 |  |
| C/C(=N\NC(=O)c1cnn(-c2ccc(Cl)cc2)c1C(F)(F)F)c1cc(Br)cc(Br)c1O [Compound 48] | 19 | 4.3 | 56 | 121 to 125 |  |
| C/C(=N\NC(=O)c1cn(-c2ccccc2)nc1O)c1ccccc1O [Compound 36] | 66 | 9.2 | 92.5 | 276 to 277 |  |
| O=C(N/N=C/c1cc(Cl)cc(Cl)c1O)c1ccco1 [Compound 14] | 52 | 0 | 56.2 |  |  |
| O=C(N/N=C/c1cc(Cl)cc(Cl)c1O)c1sc(C(F)(F)F)nc1C(F)(F)F [Compound 12] | 57 | 49.8 | 94.7 | 189 to 190 |  |
| C/C(=N\NC(=O)c1cc(C)nc2ccc(Br)cc12)c1ccccc1O [Compound 2] | 36 | 0 | 83.4 | 251 to 254 |  |
| Cc1occc1C(=O)N/N=C/c1cc(Cl)cc(Cl)c1O [Compound 10] | 67 | 8.7 | 98.1 |  |  |
| O.O.[Cl][Cu][Cl] [CuCl2, CuCl2.2H2O, reference compound] |  |  |  |  | 9.3 ± 1.6 |
| Cc1ccc(C(=O)N/N=C/c2cc(Br)cc(Cl)c2O)cn1 [Compound 8] | 0 | 0 | 60.9 |  |  |
